Assay results: article PMC9014415, “Repositioning of a Diaminothiazole Series Confirmed to Target the Cyclin-Dependent Kinase CRK12 for Use in the Treatment of African Animal Trypanosomiasis” (Journal of Medicinal Chemistry, 2022)

Assays:
[1] = Bovine hepatocyte stability; format: in vitro ADME; settings: intrinsic clearance
Procedure: collagen coated cell culture plates for 10 minutes at 37 °C, 5% CO2. Upon addition of an equal volume of supplemented WME containing 1 µM test compound, an aliquot of incubation solution was removed to acetonitrile containing internal standard (final concentration 0.5 µM test compound and a cell density of 0.25 million cells/mL). Similarly, aliquots were removed at 3, 6, 9, 15, 30, 45, 60, 90 and 120 min. 100 µL of 80:20 water:acetonitrile was added to all samples and the analysis plate was centrifuged (10 min, 1,665 g, RT) prior to injection and analysis of samples by UPLC-MS/MS. The response (area ratio of test compound relative to internal standard) was plotted against time using an exponential decay model and rate of disappearance calculated. Hepatocyte CLint (mL/min/10^6 cells) was scaled to in vivo CLint (ml/min/g Liver) using the hepato-cellularity scaling factor of 120 x […]
(b) Bovine hepatocyte stability. Freshly isolated female bovine (Prim’Holstein) hepatocytes were supplied by Biopredic InternationalTM. […]
of 80:20 water:acetonitrile was added to all samples and the analysis plate was centrifuged (10 min, 1,665 g, RT) prior to injection and analysis of samples by UPLC-MS/MS. The response (area ratio of test compound to internal standard) was plotted against time using an exponential decay model and rate of disappearance calculated. […]

[2] = system: T. congolense (KONT2/133); experiment: Cattle efficacy for compound 2, intravenous infusion (Clinvet), T. congolense; format: in vivo, Trypanosoma congolense; settings: Friesian-Holstein cattle infected with T. congolense; n = 4; at 100 days
Procedure: Unfortunately, an injection site tolerability issue arose during the pharmacokinetic study in cattle that was not evident in rats. […] To circumvent these issues, compound 2 was assessed in an in vivo proof of concept efficacy study in Friesian-Holstein cattle using an IV infusion regimen. The study was conducted in four animals infected with T. congolense (KONT2/133) and four animals infected with T. vivax (STIB719). Three additional animals infected with each strain formed the vehicle control groups and were dosed IV once daily with saline. Pharmacokinetic modeling was used to define a dosing regimen that mimics the blood concentration–time profile that delivered cure in mice (10 mg/kg SC once daily for 2 days, with a Ctrough of >20 ng/mL (>38 nM)). A continuous infusion over 36 h and two loading doses 24 h apart were required. […]
Response to treatment was determined by monitoring parasitaemia twice a week until day 21. […]
In each of the cattle efficacy studies (3.3, 3.4 and 3.5), efficacy was assessed primarily on absence of recrudescence of parasitaemia for 100 days after treatment administration together with improvements in Packed Cell Volume, body weight and clinical signs of infected compared with uninfected animals. […]

SMILES	Bovine Hepatocyte Cli [1]	Efficacy in cattle, IV bolus and infusion [2]
CC(C)CS(=O)(=O)N[C@H]1CC[C@H](Nc2nc(N)c(C(=O)c3c(F)cccc3F)s2)CC1 [Compound 1, N-((trans)-4-((4-Amino-5-(2,6-difluorobenzoyl)thiazol-2-yl)amino)cyclohexyl)-2-methylpropane-1-sulfonamide]	<0.5 / 0.5 mL/min/g	–
CC(C)CS(=O)(=O)N[C@H]1CC[C@H](Nc2nc(N)c(C(=O)c3c(F)cc(CN(C)C)cc3F)s2)CC1 [Compound 2, N-(trans)-[4-[[4-Amino-5-[4-(dimethylaminomethyl)-2,6-difluoro-benzoyl]thiazol-2-yl]amino]cyclohexyl]-2-methyl-propane-1-sulfonamide]	–	cured
